# According to patent publication US20230109717A1 (GAIA BioMedicine Inc., priority 2020, published 2023):
# “Also recorded” adds a separate entry of the source.
# Tested on: K562 cells
# Assay: Cytotoxic activity rate (% Lysis) of freeze-thawed highly active NK cells against K562 cells
# Type: cell-based
# Settings: for Activity: Exmp. 7, collect. method 2
# Method: Cytotoxic activity can be expressed as the percentage of target cells killed by effector cells, and is calculated in accordance with the following equation.
# (Cell death observed in co-culture with effector cells−Spontaneous cell death (negative control))/(Maximum cell death (positive control)−Spontaneous cell death (negative control))×100
# For the measurement of cytotoxic activity, a group of the K562 cells reacted with the NK cells, a group consisting solely of the K562 cells as a negative control, and a group of the K562 cells fixed with 10% formalin as a positive control were prepared.
# After incubation for the times indicated for the groups, the cells were collected, and prepared at a density of 2×10^6 cells/mL in 10% FBS/RPMI 1640.
# The K562 cells (human chronic myelogenous leukemia cell line) were suspended in serum-free RPMI 1640 medium, stained with PKH26 Red Fluorescent Cell Linker Kit (Sigma, PKH26GL-1KT), and finally prepared at a density of 2×10^6 cells/mL in 10% FBS/RPMI 1640.
# The NK cells and K562 cells were added and mixed in wells of 96-well plate (IWAKI, 4870-800SP) at a cell ratio of 1:1, and allowed to react at 37° C. for 2 hours under 5% CO2. After the reaction, the plate was centrifuged (500×g, 5 minutes), and the supernatant was removed. Then, a 7-AAD solution diluted with PBS was added to the cells to suspend the cells, and the suspension was incubated at room temperature for 20 minutes. […]
# For the measurement of cytotoxic activity, a group of the NK cells reacted with the K562 cells, a group solely consisting of the K562 cells as a negative control, and a group of the K562 cells fixed with 10% formalin as a positive control were prepared.
# The cells were thawed and diluted by the method described above, and a necessary amount of the cells were taken on the basis of the number of viable cells at the time of freezing, and then prepared at a density of 2×10^6 cells/mL in 10% FBS/RPMI 1640.
# The K562 cells were suspended in serum-free RPMI 1640 medium, stained with PKH26 Red Fluorescent Cell Linker Kit, and then prepared at a density of 2×10^6 cells/mL in 10% FBS/RPMI 1640. […]
# For the measurement of cytotoxic activity, a group of NK cells reacted with K562 cells, a group of K562 cells only as a negative control, and a group of K562 cells fixed with 10% formalin as a positive control were prepared. […]
# (9-2) Cytotoxic activity was measured in the same manner as described in the section of (9-1), but after thawing and dilution, the cells were left to stand for up to 6 hours, and cytotoxic activity was measured by the method described in the section b) mentioned above at the time points of 2, 5, and 6 hours. In detail, the NK cells and K562 cells were added to each well of a 96-well plate (IWAKI, 4870-800SP) at a cell ratio of 1:1, mixed, and then allowed to react at 37° C. for 2 hours under 5% CO2.
smiles,measurement,setting,value
"C[C@H](CCC(=O)NCCS(=O)(=O)O)[C@H]1CC[C@H]2[C@@H]3[C@@H](O)C[C@@H]4C[C@H](O)CC[C@]4(C)[C@H]3CC[C@]12C [TUDCA, tauroursodeoxycholic acid dihydrate]",Activity,"pretreatment KBM + 266 μM TUDCA 2 h, thawing PlasmaLyte + IL-2, R.T. 1 h",A (A means 70% or higher)
same,Activity,"pretreatment KBM + 266 μM TUDCA 2 h, thawing PlasmaLyte + IL-2, R.T. 1 h, then KBM 2 h",A (A means 70% or higher)
same,Activity,"pretreatment KBM + 266 μM TUDCA 2 h, thawing PlasmaLyte + IL-2, R.T. 3 h",A (A means 70% or higher)
same,Activity,"pretreatment KBM + 266 μM TUDCA 2 h, thawing PlasmaLyte R.T. 1 h",A (A means 70% or higher)
same,Activity,"pretreatment KBM + 266 μM TUDCA 2 h, thawing PlasmaLyte R.T. 1 h, then KBM 2 h",A (A means 70% or higher)
same,Activity,"pretreatment KBM + 266 μM TUDCA 2 h, thawing PlasmaLyte R.T. 3 h",A (A means 70% or higher)
same,Activity,"pretreatment KBM + 800 μM TUDCA 2 h, thawing PlasmaLyte + IL-2, R.T. 1 h",A (A means 70% or higher)
same,Activity,"pretreatment KBM + 800 μM TUDCA 2 h, thawing PlasmaLyte + IL-2, R.T. 1 h, then KBM 2 h",A (A means 70% or higher)
same,Activity,"pretreatment KBM + 800 μM TUDCA 2 h, thawing PlasmaLyte + IL-2, R.T. 3 h",A (A means 70% or higher)
same,Activity,"pretreatment KBM + 800 μM TUDCA 2 h, thawing PlasmaLyte R.T. 1 h",A (A means 70% or higher)
same,Activity,"pretreatment KBM + 800 μM TUDCA 2 h, thawing PlasmaLyte R.T. 1 h, then KBM 2 h",A (A means 70% or higher)
same,Activity,"pretreatment KBM + 800 μM TUDCA 2 h, thawing PlasmaLyte R.T. 3 h",A (A means 70% or higher)
same,Activity,"pretreatment KBM + 2400 μM TUDCA 2 h, thawing PlasmaLyte + IL-2, R.T. 1 h",A (A means 70% or higher)
same,Activity,"pretreatment KBM + 2400 μM TUDCA 2 h, thawing PlasmaLyte + IL-2, R.T. 1 h, then KBM 2 h",A (A means 70% or higher)
same,Activity,"pretreatment KBM + 2400 μM TUDCA 2 h, thawing PlasmaLyte + IL-2, R.T. 3 h",A (A means 70% or higher)
same,Activity,"pretreatment KBM + 2400 μM TUDCA 2 h, thawing PlasmaLyte R.T. 1 h",A (A means 70% or higher)
same,Activity,"pretreatment KBM + 2400 μM TUDCA 2 h, thawing PlasmaLyte R.T. 1 h, then KBM 2 h",A (A means 70% or higher)
same,Activity,"pretreatment KBM + 2400 μM TUDCA 2 h, thawing PlasmaLyte R.T. 3 h",A (A means 70% or higher)
same,Cytotoxic activity of frozen and thawed highly active NK cells,"pretreatment 2 hours, 10 to 810 μM, Plasma-Lyte A after thawing, 1 and 3 hours, K562, E:T 2:1, 2 hours, Example 6, dihydrate",Improvement of the cytotoxic activity; also recorded: improved in a TUDCA concentration-dependent manner
